In patent publication US20150376570A1, “METHODS AND COMPOSITIONS FOR PRODUCING INDUCED HEPATOCYTES” (GENENTECH, INC., priority 2012, published 2015):

Experiments:
BJ fibroblasts = assay: Albumin and α-fetoprotein gene expression by qPCR in transfected fibroblasts; type: cell-based, human; settings: Example 13, 5 consecutive days, 6-well plate
From the text: RPL19 (Hs02338565_gH) was used for endogenous control assays. The ViiA 7 Real Time PCR System (Applied Biosystems) was used to perform and analyze qPCRs. If gene expression was not detectable in a sample, an artificial cycle threshold of 41 was applied to allow for comparison.
Reprogramming experiments were generally performed as follows. Initial reprogramming experiments used mRNA pools containing six different mRNAs encoding the following six transcription factors: FOXA1, FOXA2, FOXA3, HNF4A, HNF1A, and GATA4. This six transcription factor pool containing mRNAs encoding FOXA1, FOXA2, FOXA3, HNF4A, HNF1A, and GATA4 is herein referred to as 6TF. The 6TF mRNA mixture used in these studies contained the mRNA molecules at a molar ratio of 1:1:1:1:1:1. […]
Albumin (ALB) and α-fetoprotein (AFP) are genes expressed almost exclusively in cells of hepatocyte lineage. […] After 5 days and 9 days, gene expression levels for albumin and α-fetoprotein in the cells were determined by qPCR using methods as described above.
BJ fibroblasts were transfected once daily with 6TF mRNA mixture (See Table 6 above for 6TF mRNA cocktail composition) or each of the 5TF mRNA mixtures (described above and shown in Table 6) for 5 consecutive days, as described above. After 5 days, gene expression levels for albumin and AFP in the cells were determined by qPCR using methods as described above. […]

TLR3 = TLR3 activation on 11TF transfection with or without Poly I:C; type: cell-based, human; settings: daily transfection and/or daily Poly I:C supplementation
Method: (See Lee et al., (2012) Cell 151:547-558.) Experiments were performed to examine whether 11TF mRNA mixture could activate TLR3 and to determine whether further activation would increase hepatic induction.
Experiments were performed to test whether daily supplementation with Poly I:C, a known TLR3 agonist, accompanying 11TF mRNA mixture transfection would further increase expression of albumin and AFP.

## HNF1A: mRNA encoding only HNF1A
BJ fibroblasts
  AFP gene expression vs non-transfected control fibroblasts: slightly above
  albumin gene expression vs non-transfected control fibroblasts: slightly above

## Poly I:C
TLR3
  TLR3 expression above control: did not activate TLR3
